Assay results taken from paper PMC9598822, “Increased Susceptibility of Mycobacterium tuberculosis to Ethionamide by Expressing PPs-Induced Rv0560c” (Antibiotics, 2022).

Target: Rv2887 (Mycobacterium tuberculosis, UniProt P9WME9)
Test: biochemical

Chain of Rv2887 (P9WME9 whole entry): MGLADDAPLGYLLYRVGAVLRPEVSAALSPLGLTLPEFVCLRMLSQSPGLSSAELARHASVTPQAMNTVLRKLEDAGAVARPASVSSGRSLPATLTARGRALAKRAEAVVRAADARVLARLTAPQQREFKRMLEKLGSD

SMILES | Kd
COC(=O)[C@@H]1CCC(=O)N1Cc1cc2ccc(OC)cc2c2cc(OC)c(OC)cc12 [PP1S] | 274 µM
CCCCOc1ccc2cc(CN3C(=O)CC[C@H]3C(=O)OC)c3cc(OC)c(OC)cc3c2c1 [PP2S] | 250 µM
